According to patent US7368576B2, “Dipeptidyl peptidase IV inhibitors and their uses as anti-cancer agents” (Probiodrug AG, priority 2001, dated 2008):

Experiments:
Format in all cases: biochemical
purified porcine DPIV = purified porcine DPIV (Sus scrofa, UniProt P22411); experiment: Determination of IC50 values, DPIV (Gly-Pro-pNA); conditions: Gly-Pro-pNA 0.4 mM, HEPES pH7.6, 30° C.
Method: 100 μl inhibitor stock solution were mixed with 100 μl buffer (HEPES pH7.6) and 50 μl substrate (Gly-Pro-pNA, final concentration 0.4 mM) and preincubated at 30° C. Reaction was started by addition of 20 μl purified porcine DPIV. Formation of the product pNA was measured at 405 nm over 10 min using the HTS 7000Plus plate reader (Perkin Elmer) and slopes were calculated. The final inhibitor concentrations ranged between 1 mM and 30 nM. For calculation of IC50 GraFit 4.0.13 (Erithacus Software) was used.

[1] = target: T1, Dipeptidyl Peptidase I (DP I, Cathepsin C) (Rattus norvegicus, UniProt P80067); experiment: Cross reacting enzymes: dipeptidyl peptidase I; conditions: concentration range 1*10^−5 M-1*10^−7 M
T1 construct: purchased Qiagen GmbH, Hilden, Germany
T1 sequence (P80067 25-462): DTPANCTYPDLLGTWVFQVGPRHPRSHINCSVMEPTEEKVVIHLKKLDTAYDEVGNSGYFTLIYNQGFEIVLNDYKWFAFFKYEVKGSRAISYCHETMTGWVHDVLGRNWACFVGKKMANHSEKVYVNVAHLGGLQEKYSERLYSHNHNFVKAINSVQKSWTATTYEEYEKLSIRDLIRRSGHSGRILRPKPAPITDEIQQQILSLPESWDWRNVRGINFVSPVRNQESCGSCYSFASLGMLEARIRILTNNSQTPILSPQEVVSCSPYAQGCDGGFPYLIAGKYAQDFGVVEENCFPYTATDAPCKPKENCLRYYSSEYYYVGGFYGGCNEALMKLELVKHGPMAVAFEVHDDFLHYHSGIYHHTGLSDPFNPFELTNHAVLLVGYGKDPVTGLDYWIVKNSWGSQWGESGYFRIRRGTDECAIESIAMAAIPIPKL
Method: DP I or cathepsin C is a lysosomal cysteine protease which cleaves off dipeptides from the N-terminus of their substrates (Gutman, H. R. & Fruton, J. S., 1948, J. Biol: Chem., 174, 851-858). It is classified as a cysteine protease. The enzyme used was purchased from Qiagen (Qiagen GmbH, Hilden, Germany). In order to get a fully active enzyme, the enzyme was diluted 1000fold in MES buffer pH5.6 (40 mM MES, 4 mM DTT, 4 mM KCl, 2 mM EDTA, 0.015% Brij) and pre-incubated for 30 min at 30° C.
50 μl glutaminyl pyrrolidine or glutaminyl thiazolidine in a concentration range of 1*10^−5 M-1*10^−7 M were admixed with 110 μl buffer-enzyme-mixture. The assay mixture was pre-incubated at 30° C. for 15 min. After pre-incubation, 100 μl histidylseryl-β-nitroaniline (2*10^-5M) was added and measurement of yellow color development due to β-nitroaniline release was performed at 30° C. and […] for 10 min., using a plate reader (HTS7000 plus, Applied Biosystems, Weiterstadt, Germany).
The IC50-values were calculated using Graphit 4.0.15 (Erithacus Software, Ltd., UK).

[2] = target: T2, recombinant human prolyl oligopeptidase (POP) (Homo sapiens, UniProt P48147); experiment: Cross reacting enzymes: prolyl oligopeptidase; conditions: concentration range 1*10^−4 M-5*10^−8 M
T2 construct: made in house; host or cells: E. coli
T2 sequence (P48147 1-710): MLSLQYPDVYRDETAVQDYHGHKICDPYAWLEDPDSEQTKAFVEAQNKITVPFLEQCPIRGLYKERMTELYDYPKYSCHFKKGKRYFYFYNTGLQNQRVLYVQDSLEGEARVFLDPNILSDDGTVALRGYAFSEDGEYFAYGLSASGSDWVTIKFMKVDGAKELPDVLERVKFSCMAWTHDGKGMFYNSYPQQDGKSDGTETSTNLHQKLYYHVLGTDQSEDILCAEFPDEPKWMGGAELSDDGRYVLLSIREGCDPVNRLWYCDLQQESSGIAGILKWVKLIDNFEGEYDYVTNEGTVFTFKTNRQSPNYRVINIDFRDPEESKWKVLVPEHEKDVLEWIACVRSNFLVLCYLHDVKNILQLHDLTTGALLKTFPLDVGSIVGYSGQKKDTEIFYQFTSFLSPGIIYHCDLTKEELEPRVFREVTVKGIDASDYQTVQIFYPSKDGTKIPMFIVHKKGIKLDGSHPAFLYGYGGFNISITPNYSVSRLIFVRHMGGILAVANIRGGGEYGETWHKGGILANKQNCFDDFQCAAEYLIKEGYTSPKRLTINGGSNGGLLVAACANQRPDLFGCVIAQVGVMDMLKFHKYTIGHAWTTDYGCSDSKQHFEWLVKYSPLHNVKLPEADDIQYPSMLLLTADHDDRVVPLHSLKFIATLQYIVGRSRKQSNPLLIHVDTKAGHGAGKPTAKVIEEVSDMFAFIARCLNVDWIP
Method: Substrates are peptides with a molecular weight up to 3000 Da. The enzyme used was a recombinant human prolyl oligopeptidase. Recombinant expression was performed in E. coli under standard conditions as described elsewhere in the state of the art.
100 μl glutaminyl pyrrolidine or glutaminyl thiazolidine in an concentration range of 1*10^−4 M-5*10^−8 M were admixed with 100 μl μl buffer solution (40 mM HEPES, pH7.6, 0.015% Brij, 1 mM DTT) and 20 μl POP solution. The assay mixture was pre-incubated at 30° C. for 15 min. After pre-incubation, 50 μl glycylprolylprolyl-4-nitroaniline solution (0.29 mM) was added and measurement of yellow color development due to 4-nitroaniline release was performed at 30° C. and λ=405 nm for 10 min using a plate reader (sunrise, Tecan, Crailsheim, Germany). The IC50-values were calculated using Graphit 4.0.15 (Erithacus Software, Ltd., UK).

Sequence of purified porcine DPIV (P22411 whole entry): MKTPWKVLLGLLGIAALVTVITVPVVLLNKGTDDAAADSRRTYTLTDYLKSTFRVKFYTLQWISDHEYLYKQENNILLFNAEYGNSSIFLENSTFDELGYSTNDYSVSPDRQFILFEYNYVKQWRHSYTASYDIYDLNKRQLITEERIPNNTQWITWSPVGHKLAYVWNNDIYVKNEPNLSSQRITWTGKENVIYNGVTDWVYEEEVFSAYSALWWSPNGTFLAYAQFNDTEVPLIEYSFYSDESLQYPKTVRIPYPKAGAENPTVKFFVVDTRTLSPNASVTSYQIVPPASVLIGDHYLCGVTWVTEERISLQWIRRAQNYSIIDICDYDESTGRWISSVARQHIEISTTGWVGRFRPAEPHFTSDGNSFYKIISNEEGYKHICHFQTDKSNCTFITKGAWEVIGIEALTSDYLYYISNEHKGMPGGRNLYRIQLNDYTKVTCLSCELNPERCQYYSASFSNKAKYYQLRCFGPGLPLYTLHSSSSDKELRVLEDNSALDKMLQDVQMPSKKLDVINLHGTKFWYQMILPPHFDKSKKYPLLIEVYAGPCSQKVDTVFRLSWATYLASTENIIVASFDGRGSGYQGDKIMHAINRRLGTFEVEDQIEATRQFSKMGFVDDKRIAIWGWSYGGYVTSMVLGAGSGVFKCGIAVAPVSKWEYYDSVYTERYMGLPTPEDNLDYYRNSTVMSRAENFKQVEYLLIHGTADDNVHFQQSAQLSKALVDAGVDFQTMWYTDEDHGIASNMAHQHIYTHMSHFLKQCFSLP

IC50 (purified porcine DPIV): 15 µM
inhibition of the DP I enzyme activity [1]: No inhibition
inhibition of POP activity [2]: No inhibition
SMILES: NC(=O)CCC(N)C(=O)N1CCCC1 (stereo not drawn) [Gln-Pyrr, glutaminyl pyrrolidine]
